# In patent US7109215B2, “Compounds possessing neuronal activity” (Vertex Pharmaceuticals Incorporated, priority 1997, dated 2006):
# Marks after values point to notes of the source that are not given here.
# Assays:
# HL60/Vinc cells = test: MDR sensitization (reversal) assay, doxorubicin, XTT viability; type: cell-based, human; settings: IC50 doxorubicin alone / IC50 doxorubicin plus compound
# Method: We carried out multidrug resistance reversal (MDR) assays using L1210vMDRC.06 or HL60/Vinc cell lines. L1210vMDRC.06 are L1210 mouse leukemia cells transduced with the pHaMDR1/A retrovirus carrying a MDR1 cDNA, as described by Pastan et al., Proc. Natl. Acad. Sci. USA, 85, pp. 4486–4490 (1988). The L1210vMDRC.06 multidrug resistant line is a cell line that has been drug-selected by culturing transfected cells in 0.06 μg/ml colchicine. The HL60/Vinc human promyleocytic leukemia cell line is a multidrug resistant cell line derived from HL60 drug-sensitive parental cells by selection in increasing concentrations of vincristine.
# Assays using HL60/Vinc cells were performed by plating cells in 96 well microtiter plates at a concentration of 4×10^4 cells/well. The cells were then exposed to various concentrations of doxorubicin (9 nM to 6.7 μM) in the presence or absence of various compounds of this invention at various concentrations (0.5, 1.0, 2.5, 5.0 or 10 μM) as described in U. Germann et al., Anti-Cancer Drugs, 8, pp. 141–155 (1997). After culturing the cells for 3 days, their viability was quantitated using the XTT dye method to assess mitochondrial function (Roehm et al., supra). Results were expressed as a ratio of the IC50 for doxorubicin alone to the IC50 for doxorubicin plus compound. In all assays the intrinsic antiproliferative or cytotoxicity activity of the MDR inhibitors was also determined for HL60/Vinc cells.
# FKBP = FKBP (Homo sapiens, UniProt P62942); test: Rotamase inhibition assay (chymotrypsin-coupled PPIase assay); type: biochemical; settings: 15 nM FKBP, 30 μM Suc-Ala-Leu-Pro-Phe-pNA, 15° C.
# Method: Inhibition of FKBP enzyme activity was determined in the PPIase assay described in S. T. Park et al., J. Biol. Chem., 267, pp. 3316–24 (1992), the disclosure of which is herein incorporated by reference. This is a chymotrypsin-coupled assay in which FKBP catalyzes the cis to trans isomerization of the Leu-Pro bond in the peptide substrate Suc-Ala-Leu-Pro-Phe-pNA. The trans form, but not the cis form, is cleavable by chymotrypsin. The release Phe-pNA was monitored by absorbance at 400 nm. Chymotrypsyn cleavage is very rapid and therefore cis-to-trans isomerization is rate-limiting.
# Each reaction mix consisted of 0.1 M Tris buffer, pH 7.8, 15 nM FKBP, 30 μM substrate and 0.5 nM to 10 μM of compound to be tested diluted in Me2SO. The mixture was incubated at 15° C. for 5 minutes and then reaction was initiated by addition of chymotrypsin (100 μg/ml final concentration) and followed spectrophotometrically for 5 minutes. Total reaction volume was 1 ml.
# [1] = tested on: pheochromocytoma PC12 cells; test: Neurite outgrowth quantitation in PC12 cell system; type: cell-based, rat; settings: 1–5 ng/ml NGF, 72 hours
# Method: In order to directly determine the neurotrophic activity of compounds described in this invention, the neurite outgrowth assay was carried out with pheochromocytoma PC12 cells as described by Lyons et al. (1994).
# PC12 cells were maintained at 37° C. and 5% CO2 in Dulbecco's modified Eagle's medium (DMEM) supplemented with 10% heat-inactivated horse serum, 5% heat-inactivated fetal bovine serum (FBS), and 1% glutamate.
# The cells were then plated at […] in 96 well plates coated with […] rat tail collagen and allowed to attach overnight. The medium was then replaced with DMEM, 2% heat-inactivated horse serum, 1% glutamate, 1–5 ng/ml of NGF (Sigma) and varying concentrations of the compounds of this invention (0.01 nM–10000 nM). The background control culture was administered with […] of NGF alone without compound. Positive control cultures were administered with high concentration of NGF (50 ng/ml). The cells were then incubated at 37° C. at 5% CO2 for 72 hours, fixed with 3% formaldehyde and nerve outgrowth was determined visually on a scale of 0 to 4.
# Chain of FKBP (P62942 whole entry): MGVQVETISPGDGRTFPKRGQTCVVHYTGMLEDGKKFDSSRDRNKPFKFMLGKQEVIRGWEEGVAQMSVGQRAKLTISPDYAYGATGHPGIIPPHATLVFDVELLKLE
Structure (SMILES),MDR Ratio (HL60/Vinc cells; compound 2.5 μM),Ki (FKBP) [µM],"Neurite outgrowth, visual scale of 0 to 4 ([1]; compound 10 nM)","Neurite outgrowth, visual scale of 0 to 4 ([1]; compound 100 nM)","Neurite outgrowth, visual scale of 0 to 4 ([1]; compound 1000 nM)",MDR Ratio (HL60/Vinc cells; compound 10 μM),"Neurite outgrowth, visual scale of 0 to 4 ([1]; compound 0.01 nM)","Neurite outgrowth, visual scale of 0 to 4 ([1]; compound 0.1 nM)","Neurite outgrowth, visual scale of 0 to 4 ([1]; compound 1 nM)","Neurite outgrowth, visual scale of 0 to 4 ([1]; compound 10000 nM)"
"CN(CCc1ccccn1)C(=O)C(Cc1ccccc1)N(C)S(=O)(=O)c1ccc(N)cc1 (stereo in doubt) [Compound 2, (S)-(N-methyl)-2-(methyl-(4-amino-benzenesulfanilamido))-3-phenyl-N-(2-(pyridin-2yl)ethyl) propionamide]",0.7,> 50,3***,3***,4***,,,,,
"CN(CCc1ccccn1)C(=O)[C@@H]1CCCCN1S(=O)(=O)c1ccc(N)cc1 [Compound 1, N-(4-aminobenzenesulfonamido)-(S)-piperidine-2-carboxylic acid-2-((N-methyl)-2-pyridylethyl) amide]",0.6,,3***,1***,3***,,,,,
CN(CCCc1cccnc1)C(=O)[C@@H]1CCCCN1S(=O)(=O)c1ccc(N)cc1 [Compound 3],0.6,> 50,2***,4***,4***,,,,,
"CN(C(=O)[C@H](Cc1ccccc1)N(C)S(=O)(=O)c1ccc(N)cc1)C(CCCc1cccnc1)CCCc1cccnc1 [Compound 4, (S)-(N-methyl)-2-(methyl-(4-amino-benzenesulfanilamido))-3-phenyl-N-(4-(pyridin-3-yl)-1-(3-(pyridin-3-yl)propyl)butyl) propionamide]",6.2,> 25,3*,3*,4*,,,,,
CN(C(=O)[C@H](Cc1ccccc1)N(C)S(=O)(=O)c1ccc(Nc2ccc([N+](=O)[O-])cc2[N+](=O)[O-])cc1)C(CCCc1cccnc1)CCCc1cccnc1 [Compound 5],,,2*,3*,3*,30.4,,,,
CN(C)c1ccc(/N=N\c2ccc(S(=O)(=O)N(C)[C@@H](Cc3ccccc3)C(=O)N(C)C(CCCc3cccnc3)CCCc3cccnc3)cc2)cc1 [Compound 6],,,4*,2*,3*,17.7,,,,
CN(C)c1cccc2c(S(=O)(=O)N(C)[C@@H](Cc3ccccc3)C(=O)N(C)C(CCCc3cccnc3)CCCc3cccnc3)cccc12 [Compound 7],,,2*,3*,3*,21.9,,,,
CN(C(=O)[C@H](Cc1ccccc1)N(C)S(=O)(=O)c1ccccc1[N+](=O)[O-])C(CCCc1cccnc1)CCCc1cccnc1 [Compound 8],28.5,> 50,4*,2*,3*,,,,,
CN(C(=O)[C@H](Cc1ccccc1)N(C)S(=O)(=O)CS(C)(=O)=O)C(CCCc1cccnc1)CCCc1cccnc1 [Compound 11],1.7,,1*,3*,3*,,,,,
CN(C(=O)[C@H](Cc1ccccc1)N(C)S(=O)(=O)Cc1ccccc1)C(CCCc1cccnc1)CCCc1cccnc1 [Compound 12],22.6,,3*,3*,4*,,,,,
CN(C(=O)[C@H](Cc1ccccc1)N(C)S(=O)(=O)/C=C/c1ccccc1)C(CCCc1cccnc1)CCCc1cccnc1 [Compound 13],19.3,,3*,3*,4*,,,,,
CN(C(=O)[C@H](Cc1ccccc1)N(C)S(=O)(=O)c1ccc(F)cc1)C(CCCc1cccnc1)CCCc1cccnc1 [Compound 14],19.9,,3*,2*,4*,,,,,
CC(=O)Nc1ccc(S(=O)(=O)N(C)[C@@H](Cc2ccccc2)C(=O)N(C)C(CCCc2cccnc2)CCCc2cccnc2)cc1 [Compound 15],2.4,,3*,3*,3*,,,,,
CN(C(=O)[C@H](Cc1ccccc1)N(C)S(=O)(=O)c1ccc(C#N)cc1)C(CCCc1cccnc1)CCCc1cccnc1 [Compound 16],19.9,,3*,4*,3*,,,,,
COc1ccc(S(=O)(=O)N(C)[C@@H](Cc2ccccc2)C(=O)N(C)C(CCCc2cccnc2)CCCc2cccnc2)cc1OC [Compound 17],14.6,,3*,3*,4*,,,,,
O=C(OCc1ccccc1)C1CCCCN1 (centres unmarked) [Compound 101],,> 50,,,,,,,,
O=C(OC(CCCc1cccnc1)CCCc1cccnc1)C1CCCCN1 (centres unmarked) [Compound 102],1.2,,4**,2**,3**,,3*,3*,4*,4*
CNC(Cc1ccccc1)C(=O)N(C)C(CCCc1cccnc1)CCCc1cccnc1 (centres unmarked) [Compound 109],,,3*,2*,4*,,3*,4*,4*,3*
